{"source": "patent US20200291082A1", "about": "“PREVENTION AND TREATMENT OF GRAFT-VERSUS-HOST-DISEASE WITH DEFENSINS” (priority 2017, published 2020)", "type_in_all_cases": "in vivo, BALB/c mice", "key": {"[1]": {"tested_on": "acute graft versus host disease following stem cell transplantation", "test": "prophylactic oral hBD-2 versus cyclosporine in murine model of acute graft versus host disease (Example 14)", "description": "To determine and assess the efficacy of prophylactic treatment with oral hBD-2 versus cyclosporine in a murine model of acute graft versus host disease following stem cell transplantation.\nTreatment regime: 20 female BALB/c mice were irradiated with 4.5 Gy (2×498 sec) at intervals of at least 4 hours on day 0. Bone marrow was harvested: hind limbs harvested from 2 female WT C57BL/6 mice aseptically. Skeletal muscle was removed and epiphysis cut away. Lumen of bone flushed with PBS and cells pelleted and taken up. Harvest of T-cells: spleens from 2 female WT C57BL/6 mice were meshed through a […] cell strainer into a PBS filled dish. Cells were taken up in PBS and transferred into a 50 mL falcon tube and spun down. Cells were taken up in 1 mL PBS and 20 μL of CD4 microbead+20 μL CD8 microbeads per spleen added for incubation for 20 min at 4 degrees C. Cells were washed with PBS and applied to MACS separation in order to positively select CD4+ and CD8+ cells. Positively selected T-cells were counted and taken up. Transplantation: directly after the second irradiation, all WT BALB/c recipient mice were injected with 5×1.000.000 BM cells (50 μL) i.v. into the retroorbital venous plexus under isoflurane anesthesia. 20 BALB/c mice were treated with 1.2 mg of hBD2/kg BW/day (n=7); 50 mg cyclosporine/kg BW on days 0, 3, 6 and 9 (n=7) or 100 μL PBS per day vial oral gavage (n=6) from day 0-10.\nThe mice were weighed at regular intervals during the study and survival was monitored for 90 days."}, "[2]": {"tested_on": "house dust mite model of allergic asthma", "test": "therapeutic intranasal versus oral hBD2 in murine house dust mite model of allergic asthma (Example 10)", "description": "To determine and assess the efficacy of IN versus oral therapeutic intervention with defensins in a murine house dust mite model of allergic asthma.\nTreatment regime: Female 7-10 weeks old BALB/c mice were randomly allocated into 7 study groups one day prior to study start and subcutaneously (SC) sensitized to house dust mite (100 μg HDM in 200 μL saline plus Freund's complete adjuvant in 0.9% saline). Mice were then intranasally (IN) challenged with HDM on day 14 (HDM 25 μg in 50 μL of saline). Dexamethasone was administered orally (1 mg/kg BID; 50 μL phosphate buffered saline (PBS)) on day 14. hBD2 was administered IN or orally (1.7 mg/kg TID IN; 0.4 mg/kg TID IN; 0.4 mg/kg TID orally, 50 μL phosphate buffered saline) on day 14. The initial dose was administered 60 minutes prior to challenge, and the subsequent doses approximately 6 hours apart (FIG. 5).\n(§1) Airway inflammation: At 48 hours post challenge, bronchoalveolar lavage was performed washing the lungs with 3 volumes of cold PBS (0.4; 0.3 and 0.3 mL, total 1 mL). Total and differential leucocyte cell counts were determined on an automated haematological analyser Sysmex XT-2000iV.\nData are represented as airway resistance at […] methacholine and as dose responsive curves.\nLung sampling for cytokine analysis: After completion of every BAL, lungs were removed from the thorax, snap frozen in liquid nitrogen and stored frozen at −80 degrees Celsius until analysis of cytokine concentration of IL-1β, TNF-α, IL-6, IL-10 and IFNγ by ELISA."}, "[3]": {"tested_on": "house dust mite driven model of allergic asthma", "test": "prophylactic intranasal versus oral hBD2 in murine house dust mite driven model of allergic asthma (Example 9)", "description": "To determine and assess the efficacy of prophylactic treatment with intranasal (IN) versus oral defensins in a murine house dust mite driven model of allergic asthma.\nTreatment regime: Female 7-10 weeks old BALB/c mice were randomly allocated into 5 study groups one day prior to study start and subcutaneously (SC) sensitized to house dust mite (100 μg HDM in 200 μL saline plus Freund's complete adjuvant in 0.9% saline). The mice were treated with hBD2 orally and intranasally respectively at a dose of 1.2 mg/kg/day (0.4 mg/kg TID) starting on day 12 in the morning and continued TID at approximately 6 hours intervals. The last dose was administered on day 14 one hour prior to challenge. The total number of doses were […] hBD2. Mice were then intranasally (IN) challenged with HDM on day 14 (HDM 25 μg in 50 μL of saline) (FIG. 4).\nas §1\nLung function: Starting 48 hours after HDM challenge, measurements of lung resistance and lung compliance were carried out after methacholine challenge (3.125 MCH1; 6.25 MCH2; 12.5 MCH3 and 25 mg/mL MCH4) by anaesthetized, cannulated mice using DSI's Buxco Finepoint RC system. Data are represented as airway resistance at […] methacholine and as dose responsive curves.\nLung sampling for cytokine analysis: After completion of every BAL, lungs were removed from the thorax, snap frozen in liquid nitrogen and stored frozen at −80 degrees Celsius until analysis of cytokine concentration of TNF-α, IL-4, IL-5, IL-6, IL-9, IL-13 and IL-33 in lung homogenate by ELISA."}, "[4]": {"details": "dexamethasone 1 mg/kg BID oral, hBD2 both IN doses (0.4 mg/kg/day TID and 1.7 mg/kg/day TID)"}, "[5]": {"details": "hBD2 both oral and intranasal TID on day 14, versus HDM challenged vehicle"}, "[6]": {"details": "hBD2 both oral and intranasal TID, day 12 to day 14 (total 2.0 mg/kg in 8 administrations), versus HDM challenged vehicle"}, "[7]": {"details": "intranasally administered, not statistically significantly different from the control"}}, "note": "No end group written: not given here."}
{"substance": "human beta defensin 2 (GIGDPVTCLKSGAICHPVFCPRRYKQIGTCGLPGTKCCKKP; not fully specified (bridges); ends and bridges not checked; listed as Homo sapiens) [hBD2]", "values": [{"measurement": "mortality", "setting": "[1]; FIG. 56, 7 mice treated with oral hBD-2 for 10 days", "value": "statistically significant reduction of mortality"}, {"measurement": "weight loss following bone marrow transplantation", "setting": "[1]; compared with PBS treated mice", "value": "lost statistically significantly less weight"}, {"measurement": "treated animals that had died by day 90", "setting": "[1]; oral hBD-2 1.2 mg/kg/day day 0-10 (n=7), cyclosporine 50 mg/kg on days 0, 3, 6 and 9 (n=7), all but one of PBS mice (n=6) died", "value": 1}, {"measurement": "eosinophil counts in BALF", "setting": "[2]; [4]", "value": "trend towards lowering of eosinophils"}, {"measurement": "macrophage counts in BALF", "setting": "[2]; [4]", "value": "significantly inhibited"}, {"measurement": "neutrophil counts in BALF", "setting": "[2]; [4]", "value": "significantly inhibited"}, {"measurement": "total cell counts in BALF", "setting": "[2]; [4]", "value": "significantly inhibited"}, {"measurement": "IL-6 level in lung tissue homogenates", "setting": "[2]; hBD2, both dosing routes", "value": "significant effects"}, {"measurement": "IL-10 level in lung tissue homogenates", "setting": "[2]; hBD2, both dosing routes", "value": "significant effects"}, {"measurement": "airway resistance", "setting": "[2]; [5]", "value": "effectively inhibited increase of airway resistance"}, {"measurement": "pulmonary compliance", "setting": "[2]; [5]", "value": "effectively inhibited"}, {"measurement": "TNF-α level in lung tissue homogenates", "setting": "[2]; intranasally administered hBD2", "value": "differed from the control but not significantly"}, {"measurement": "TNF-α level in lung tissue homogenates", "setting": "[2]; perorally administered hBD2", "value": "significantly reduced TNF-α"}, {"measurement": "airway resistance", "setting": "[3]; [6]", "value": "effectively inhibited the increase of airway resistance"}, {"measurement": "pulmonary compliance", "setting": "[3]; [6]", "value": "effectively inhibited"}, {"measurement": "IL-4 in lung tissue homogenates", "setting": "[3]; [7]", "value": "trend towards lowering"}, {"measurement": "IL-5 in lung tissue homogenates", "setting": "[3]; [7]", "value": "trend towards lowering"}, {"measurement": "IL-6 in lung tissue homogenates", "setting": "[3]; [7]", "value": "trend towards lowering"}, {"measurement": "IL-9 in lung tissue homogenates", "setting": "[3]; [7]", "value": "trend towards lowering"}, {"measurement": "IL-13 in lung tissue homogenates", "setting": "[3]; [7]", "value": "trend towards lowering"}, {"measurement": "TNF-α in lung tissue homogenates", "setting": "[3]; [7]", "value": "trend towards lowering"}, {"measurement": "IL-4 concentration in lung tissue homogenates", "setting": "[3]; oral administration", "value": "complete normalization of cytokine concentrations"}, {"measurement": "IL-6 concentration in lung tissue homogenates", "setting": "[3]; oral administration", "value": "complete normalization of cytokine concentrations"}, {"measurement": "IL-9 concentration in lung tissue homogenates", "setting": "[3]; oral administration", "value": "complete normalization of cytokine concentrations"}, {"measurement": "IL-13 concentration in lung tissue homogenates", "setting": "[3]; oral administration", "value": "complete normalization of cytokine concentrations"}, {"measurement": "L-5 (31c) concentration in lung tissue homogenates", "setting": "[3]; oral administration", "value": "complete normalization of cytokine concentrations"}, {"measurement": "TNF-α concentration in lung tissue homogenates", "setting": "[3]; oral administration", "value": "complete normalization of cytokine concentrations"}, {"measurement": "neutrophil counts in BALF", "setting": "[3]; oral application", "value": "significantly inhibited neutrophil counts"}]}
